Read-outs that look alike come from different tables or passages of the source.
Legend:
[1] = system: Propionibacterium acne; experiment: Zone of inhibition (agar well diffusion technique); assay type: cell-based
Method: (§1) Two series of tests were conducted to evaluate the bioefficacy of bakuchiol, salicylic acid and the combination of the two against Propionibacterium acne. The first evaluated the median inhibitory concentration (IC50) of each of the two actives in order to set the dosing for the second test. The second test ascertained the bioefficacy, as represented by the zone of inhibition, of each active and their combination in relation to P. acne. In both sets of tests, inoculums of 1.0 x 10^6 cfu/ml P. acne were used.
Agar plates were prepared by first pouring sterile molten agar into petriplates to a depth of 6mm. After allowing the agar to solidify sufficiently, a well of 10 mm diameter was prepared by carefully punching and removing a 10 mm diameter plug of agar without lifting the surrounding medium. In this experiment, all cultures used were adjusted to the turbidity of 0.5 McFarland per the standard procedure and then 0.1 ml of each culture was spread plated onto the agar plates. Appropriate controls were maintained.
Stock solutions of the actives to be tested were prepared by dissolving 1 mg of each of the actives, Sytenol A bakuchiol and salicylic acid, in separate 5 ml quantities of dimethyl sulfoxide (DMSO) at room temperature: though slight warming was employed to expedite the dissolution of the salicylic acid. These stock solutions were then diluted or mixed and diluted to produce sample solutions having the concentrations of each active as noted in Table 4 and the well of each plate filled with the appropriate solution by capillary pipette. Nothing was placed in the well of the control.
Following inoculation and addition of the test sample to the well, each plate was then covered and incubated for 48 hours at 37 °C. Following incubation, the plates were removed and the zones of inhibition recorded and tabulated. […] When both actives were present at one-half the median inhibitory concentration, […] (Sample F); however, it seemed that the apparent ineffectiveness of the salicylic acid at this level appeared to offset or counteract the effectiveness of the bakuchiol. Consequently, at least for salicylic acid, at least one-half and preferably at least the median inhibitory concentration of the dermatological acid should be used.

[2] = system: Propionibacterium acne; experiment: Median inhibitory concentration (IC50) in BHI broth, reading at 610 nm; assay type: cell-based
Method: as §1
P. acne organisms were inoculated into Brain Heart Infusion (BHI) broth and incubated at 37°C for 24 hrs. Thereafter, the culture was serially diluted to a 10^-6 dilution. 100 µl aliquots of the 10^-6 dilution culture were then added to sterile test tubes containing 10 ml fresh BHI broth serial solutions of bakuchiol or salicylic acid. The serial solutions contained either active at from 0.5 to 50 µg/ml concentrations in 0.5 µg/ml increments, i.e., 0.5, 1.0, 1.5,..., 50.0 µg/ml. An inoculated control, free of either active, was also evaluated. The inoculated test tubes were then incubated at 37°C for 48 hrs. UV spectrophotometric readings were then made of each test tube at 610 nm and the values plotted.

[3] = Skin sensitivity: repeated occlusive patch test, nine inductive patchings and a challenge; assay type: in vivo; conditions: 5% dilution in corn oil, 111 subjects
Method: Reactions were scored 24 and 48 hours after application.

[4] = molecular target: T1, human neutrophil elastase (Homo sapiens, UniProt P08246); experiment: Elastase inhibitory activity (colorimetric substrate Suc-Ala-Ala-Ala-pNA, 410 nm); assay type: biochemical; conditions: for remaining activity at 1 µg/mL: 1 ug/ml; for remaining activity at 1 µg/mL / remaining activity at 5 µg/mL / remaining activity at 25 µg/mL: average of three runs, water = 100, read-out: Elastase Activity (% of Control); for remaining activity at 5 µg/mL: 5 ug/ml; for remaining activity at 25 µg/mL: 25 ug/ml; for elastase inhibitory effect: at the concentrations tested
T1 construct: purchased Calbiochem of San Diego, CA, US 324681
T1 sequence (P08246 30-247 limits assumed): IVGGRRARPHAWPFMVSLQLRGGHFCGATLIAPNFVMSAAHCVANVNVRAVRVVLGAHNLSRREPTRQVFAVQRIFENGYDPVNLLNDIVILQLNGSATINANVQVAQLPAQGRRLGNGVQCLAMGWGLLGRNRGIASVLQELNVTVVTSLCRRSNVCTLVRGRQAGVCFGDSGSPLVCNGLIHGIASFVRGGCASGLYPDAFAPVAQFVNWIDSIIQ

[5] = system: Clostridium collagenase IV; experiment: Collagenase inhibitory activity (Enzcheck kit, quenched fluorescent gelatin); assay type: biochemical
Method: In order to ascertain whether other benefits may be attained by the use of meroterpenes in skin care formulations, a study was conducted on the impact, if any, the presence of bakuchiol may have on collagenase: a collagenolytic enzyme responsible for much of the collagen damage associated with UV exposure and photoaging in general. Collagenase activity was measured with an Enzcheck kit from Molecular Probes (Carlsbad, CA, USA) using quenched fluorescent gelatin and Clostridium collagenase IV, a generic metalloproteinase. Test material (aqueous solutions 1000ug/ml, 100ug/ml, 10ug/ml and 1ug/ml made from 10mg/ml stock in DMSO) was incubated in the presence of collagenase substrate - quenched fluorescin-linked gelatin and in the presence of the proteolytic enzyme. Phenanthroline, a potent metalloprotease (MP) inhibitor was used as positive control at 100ug/ml. The kinetics of the release of the digested, fluorescent gelatin were measured at excitation/emission wavelengths of 485/530nm with Millipore Cytofluor 2350 microfluorometer.

C=C[C@@](C)(/C=C/c1ccc(O)cc1)CCC=C(C)C [Bakuchiol]
zone of inhibition at 0.3 µg/mL ([1]; Propionibacterium, Sample A: Bakuchiol 0.3 µg/ml): 35 mm | zone of inhibition at 0.6 µg/mL ([1]; Propionibacterium, Sample B: Bakuchiol 0.6 µg/ml): 37 mm | IC50 ([2]; 48 hrs at 37°C, read-out: IC50): 0.6 µg/mL | primary irritation [3]: NON-PRIMARY IRRITANT | sensitization [3]: NON-PRIMARY SENSITIZER | remaining activity at 1 µg/mL [4]: 31% | remaining activity at 5 µg/mL [4]: 65% | remaining activity at 25 µg/mL [4]: 77% | elastase inhibitory effect [4]: clear elastase inhibition at all concentrations tested | Collagenase median inhibitory concentration (IC50) [5]: ~0.1 % (w/w)

CC1=C(/C=C/C(C)=C/C=C/C(C)=C/CO)C(C)(C)CCC1 [Retinol, reference compound]
remaining activity at 1 µg/mL [4]: 87% | remaining activity at 5 µg/mL [4]: 138% | remaining activity at 25 µg/mL [4]: 416% | elastase inhibitory effect [4]: no statistically significant elastase inhibitory effect

O=C(O)c1ccccc1O [Salicylic acid, 2-hydroxybenzoic acid]
zone of inhibition at 29 µg/mL ([1]; Propionibacterium): 12 mm | zone of inhibition at 58 µg/mL ([1]; Propionibacterium): 12 mm | Zone of Inhibition ([1]; Sample C: Salicylic acid 14.5 µg/ml): No Inhibition | IC50 ([2]; 48 h): 29 µg/mL
